Reference: patent US4599325A, “Substituted tyrosyl alanine dipeptide amides” (G. D. Searle & Co., priority 1985, dated 1986)
Counter-ions that a name gives are not always drawn.

How the values were obtained:
mice [1] = assay: Hot plate test (intravenous administration); assay type: in vivo, mouse; settings: 10 mg/kg i.v.
Procedure: Male albino inbred mice supplied by Charles River [CD-1 (ICR)BR] weighing between 20 and 30 grams were used. The mice were placed on a 55° C. hot plate 60, 40, and 20 minutes prior to drug administration and the latencies to the lick of a paw or to a jump were recorded. Mice not responding within 15 seconds were discarded from the study. The test compound or vehicle was then administered intravenously and the animals' response latencies on the hot plate were recorded again 10, 30 and 60 minutes later. The initial test dose was 10 mg/kg. Mice not responding within 30 seconds were removed from the hot plate to prevent tissue damage and assigned the cut-off value of 30 seconds. Elevation of the response latencies to greater than twice the median of the three pre-drug latency measurements was indicative of analgesia. For each time point, the data were expressed as the number of animals having analgesic response latencies out of the total number tested. The number of analgesic animals in the test compound-treated group was then compared with the number of analgesic animals in the vehicle-treated group at each time point using Fisher's Exact Probability Test. S. Siegel, Nonparametric Statistics for the Behavioral Sciences. McGraw-Hill, New York, pp. 96-104 (1956 ). […]

mice [2] = assay: Writhing assay (phenylbenzoquinone); assay type: in vivo, mouse; settings: for ED50: Mus musculus; for Writhing Mouse Oral (ED50) / Writhing Mouse Subc. (ED50): Table 1; for Writhing Mouse Subc. (ED50): subcutaneous
Procedure: Male Charles River albino mice (CD-1/HAM/1LR) weighing between 20 and 30 grams were used. Thirty minutes after subcutaneous or intragastric administration of the test compound (0.1 ml/10 gram body weight), 0.025% (w/v) phenylbenzoquinone was injected intraperitoneally (0.1 ml/10 gram body weight). Five minutes later, each mouse was placed in a large glass beaker and the number of writhes that occurred in the subsequent ten minutes is counted. A writhe consisted of dorsoflexion of the back, extension of the hindlimbs, and strong contraction of the abdominal musculature. The test compound was considered to have produced analgesia in a mouse if the number of writhes elicited by phenylbenzoquinone was equal to or less than one-half the median number of writhes recorded for the saline-treated group that day. The results were expressed as the number of mice (out of a possible ten) in which the test compound produced analgesia. The test compound was rated active if writhing was inhibited (as described) in 5 of 10 mice.
The receptor binding and biological properties of the following compounds of this invention are illustrated in Tables 1 and 2 utilizing the previously described opiate binding, hot plate, tail flick, writhing assay, cholera test or hypertensive test. The standard screening dose for the hot plate test of Table 1 was 10 mg/kg i.v. and for the writhing assay was 10 mg/kg s.c. and p.o.

mice [3] = assay: Combined tail flick and hot plate tests: hot plate; assay type: in vivo, mouse; settings: for ED50: Mus musculus, combined tail flick/hot plate; for activity in hot plate test of combined tests: oral and subcutaneous, prior art at doses as great as 100 mg/kg p.o. and 50 mg/kg s.c.
Procedure: Male albino inbred mice supplied by Charles River (CD-1/HAM/1LR) weighing between 20 and 30 grams were used. Analgesia was first measured using the tail flick test in which a high intensity beam of light was focused on the blackened tail. The interval of time between onset of the light and reflex removal of the tail was defined as the tail flick latency. The average of two successive determinations was recorded. Following tail flick determination, the animals were immediately placed on a 55° C. copper hot plate to which they were restricted by an inverted 600 ml glass beaker. Hot plate latency was defined as the interval between placement on the hot plate and a behavioral response of either a jump or a hindpaw lick. One determination was recorded. Mice not responding within 4.0 seconds on the tail flick and 20.0 seconds on the hot plate were discarded from the study. The tail flick test and the hot plate test were stopped after 12.0 and 40 seconds, respectively, had elapsed to prevent tissue damage. After determination of pre-injection baseline latencies, the test compound was dissolved in distilled water and administered either orally or subcutaneously (0.1 ml/10 gram body weight). Tail flick and hot plate latencies were measured 10, 30, 60 and 90 minutes after injection. One-way analyses of variance were used to detect any significant increase in tail flick and hot plate latencies (indicative of analgesia) as compared to latencies prior to drug adminstration, as well as to establish the dose-dependence of any effect. A linear regression method (least squares) was used to determine the line of best fit. The ED50 dose was determined to be that dose of test compound that produced one-half the maximum measurable increase in latency. This corresponded to a post-drug tail flick latency of 7.5 seconds and hot plate latency of 25 seconds. G. Keppel: Design and analysis: a researcher's handbook, New Jersey, Prentice-Hall, 1973.

rat cholera model = assay: Cholera-induced intestinal fluid secretion (rat cholera model); assay type: in vivo
Procedure: The rat cholera model was used to determine the effect of the test compounds on intestinal fluid movements. (H. I. Jacoby and C. H. Marshall, Antagonism of Cholera Enterotoxin by Anti-inflammatory Agents in the Rat. Nature, 235, 163-165, 1972). Female Charles River rats weighing 85-100 grams and having free access to water were fasted for 24 hours prior to each experiment. After a midline incision was made under ether anesthesia, a 20-cm ligated small intestinal segment was constructed starting 3 cm distal to the ligament of Treitz. Each segment was injected, using a 27 gauge 1/2-inch needle, with crude cholera toxin in a 0.9% saline solution. Thirty minutes before cholera toxin was injected, test compounds were administered subcutaneously to groups of four rats at doses of 10 and 20 mg/kg. Four hours after injection of toxin, the animals were sacrificed and the fluid content and exact length of the intestinal segments were measured. Fluid secretion was expressed in ml/cm of intestine.
The ID50 's of these compounds were estimated using data obtained from at least two doses and at least two experiments by the method of maximum likelihood. R. A. Fischer. "Principles of Statistical Estimation." in Statistical Methods for Research Workers, 14th ed. Hafner: New York; pp. 301-339. […]

[4] = test system: spontaneous hypertensive rats (SHR); assay: Hypertensive test in spontaneous hypertensive rats (SHR); assay type: in vivo, rat; design: key to Antihypertensive Properties, Result: Active: Any compound that resulted in a decrease in arterial blood pressure of 20 mm Hg or greater was considered active; settings: for Antihypertensive Properties, Result: Table 3, 10 mg/kg intravenously, one unanesthetized male SHR
Procedure: A compound's ability to act as an antihypertensive agent was determined using spontaneous hypertensive rats (SHR). Male SHR were maintained in-house for 1 or more weeks before use and were between 11 and 16 weeks old. The test compound was administered intravenously and the initial mean arterial blood pressure was measured directly via an arterial catheter implanted immediately before administration of the compound. Blood pressure readings were made 5, 10 and 15 minutes after administration of the compound. […] Statistical comparisons were made using the unpaired student's test.
The following compounds of the invention were evaluated for their antihypertensive properties using the spontaneous hypertensive rat (SHR). […] The SHR test was essentially that described earlier. Each compound listed in Table 3, was administered intravenously to one unanesthetized, male, spontaneously hypertensive rat; the dosage was 10 mg/kg.

| Compound | Hot Plate (I.V.) 10 mg/kg: rating and animals with analgesic latencies / tested (mice [1]) | ED50 (mice [2]; po, Table 2, p.o., read-out: Writhing (ED50) p.o.) [mg/kg] | ED50 (mice [2]; sc, Table 2, s.c., read-out: Writhing (ED50) s.c.) [mg/kg] | Writhing Mouse Oral (ED50) (mice [2]; hydrochloride) [mg/kg] | Writhing Mouse Subc. (ED50) (mice [2]; hydrochloride) [mg/kg] | activity in writhing test relative to the prior art, oral (mice [2]; administered orally, more active than prior art) [times] | potency in writhing test relative to the prior art, subcutaneous (mice [2]; subcutaneous administration) | ED50 (mice [3]; po, p.o., read-out: Hot Plate (ED50) p.o.) [mg/kg] | ED50 (mice [3]; sc, s.c., read-out: Hot Plate (ED50) s.c.) [mg/kg] | activity in hot plate test of combined tests (mice [3]) | ED50 (rat cholera model; Rattus norvegicus, sc, read-out: Rat Cholera Test (ED50)) [mg/kg] | SHR Blood Pressure, dose printed (active at) ([4]; Table 2, i.v.) [mg/kg] | Antihypertensive Properties, Result [4] | Writhing Mouse Oral (ED50) (mice [2]) [mg/kg] | Writhing Mouse Subc. (ED50) (mice [2]) [mg/kg] | Writhing (ED50) s.c. (mice [2]; Table 2, s.c.) [mg/kg] | Hot Plate, activity at stated dose s.c. (mice [3]; 50 mg/kg s.c.) | Hot Plate, activity at stated dose p.o. (mice [3]; 100 mg/kg p.o.) | Rat Cholera Test, activity at stated dose (rat cholera model; 20 mg/kg s.c.) | SHR Blood Pressure, activity at stated dose ([4]; Table 2, 10 mg/kg i.v.) |
| --- | --- | --- | --- | --- | --- | --- | --- | --- | --- | --- | --- | --- | --- | --- | --- | --- | --- | --- | --- | --- |
| Cc1cc(O)cc(C)c1C[C@H](N)C(=O)N[C@H](C)C(=O)NCCCc1ccccc1 [Example 5, 2,6-dimethyltyrosyl-N-(3-phenylpropyl)-D-alaninamide, hydrochloride] | Active 6/7 | 0.5 | 0.5 | 0.53 | 0.52 | 6 | approximately equipotent | 52 | 9 | active | 6.1 | 1 | Active |  |  |  |  |  |  |  |
| tyrosine-D-alanine-phenylpropylamide [Prior Art, reference compound] | Inactive 0/10 |  |  |  |  |  |  |  |  | not active |  |  | Active | 0.58 | 3.10 | 0.6 | Inactive | Inactive | Inactive | Active |
